Measurements as given in patent US10512634B2, “Benzimidazole derivates useful as inhibitors of mammalian histone deacetylase activity” (KANCERA AB, priority 2015, dated 2019).
Structures can show the parent of a compound that is named as a salt. Where two headings read alike, the source gives them in different places. Blank lines part the entries; values can stand above or below the compound they belong to.

Assays:
HDAC6 = HDAC6 (Homo sapiens (Human), UniProt Q9UBN7); experiment: HDAC in vitro enzymatic assay (fluorescence); assay type: biochemical; conditions: top concentration 2 μM
Protocol: Biological Tests Method for Measurement of Enzymatic Activity of HDACs Materials & Methods
All Examples were tested in HDAC1, 2, 3, 6 and 8 in vitro enzymatic assays. The assay principle is well known (Hauser et al. 2009, Bradner et al. 2010) and all necessary reagents like enzymes, substrates, developer and reference compounds are commercially available (see e.g. BPS Biosciences http://www.bpsbioscience.com/). A series of dilutions of the compounds were prepared with a top concentration of 200 μM (2 μM for HDAC6). The enzymatic reactions were conducted in a mixture containing assay buffer, bovine serum albumin, HDAC substrate, and a test compound. After enzymatic reaction, developer was added and after an additional incubation time, fluorescence intensity was measured at an excitation wavelength of 360 nm and an emission wavelength of 460 nm. A selection of the Examples were tested in a full HDAC panel containing HDAC1, 2, 3, 4, 5, 6, 7, 8, 9, 10 and 11 in vitro enzymatic assays. The tests were performed as above except that a series of dilutions of the compounds were prepared with a top concentration of 10 μM for all HDACs.

HDAC1 = HDAC1 (Homo sapiens (Human), UniProt Q13547); experiment: HDAC in vitro enzymatic assay (fluorescence); conditions: read-out: IC50 HDAC1; selectivity profiling; top concentration 200 μM
HDAC2 = HDAC2 (Homo sapiens (Human), UniProt Q92769); experiment: HDAC in vitro enzymatic assay (fluorescence); conditions: read-out: IC50 HDAC2; selectivity profiling; top concentration 200 μM
HDAC8 = HDAC8 (Homo sapiens (Human), UniProt Q9BY41); experiment: HDAC in vitro enzymatic assay (fluorescence); conditions: read-out: IC50 HDAC8; selectivity profiling; top concentration 200 μM
HDAC3 = HDAC3 (Homo sapiens (Human), UniProt O15379); experiment: HDAC in vitro enzymatic assay (fluorescence); conditions: read-out: IC50 HDAC3; selectivity profiling; top concentration 200 μM
U266 (multiple myelom) = experiment: CellTiter-Blue cell viability assay; assay type: cell-based; conditions: Homo sapiens, U-266; U266 cells, 72 hours of treatment; read-out: IC50 U266 (cell viability)
Protocol: (§1) Method for Measurement of Cell Viability
(§2) The CellTiter-Blue® Cell Viability Assay (Promega) provides a homogeneous, fluorometric method for estimating the number of viable cells present in multi-well plates. The assay uses the indicator dye resazurin to measure the metabolic capacity of cells. Viable cells retain the ability to reduce resazurin into resorufin, which is highly fluorescent.
(§3) Stock solutions (10 mM in DMSO) of compounds were serially diluted 1:2 in 11 concentrations. 50 nL/well (10 mM compound stock in DMSO) was acoustically dispensed in 384-well assay plates with an acoustic dispenser (EDC Biosystems ATS-100AV). Final starting concentration in the assay was 20 μM (0.2% DMSO) for test compounds. […] After 72 hours, Celltiter Blue reagent (Promega #G8081) was diluted 1:10 with PBS and then added to wells (5 μL/well). The plates were incubated for 2 hours following addition of reagent. […] Results were calculated as % cell viability compared to background (cells treated with 0.2% DMSO).

[1] = test system: PBMC (peripheral blood mononuclear cells from healthy donors); experiment: CellTiter-Blue cell viability assay; assay type: cell-based; conditions: healthy PBMC, 72 hours of treatment; read-out: IC50 healthy PBMC (cell viability)
Protocol: as §1, §2, §3

AMO-1 (plasmacytom) = experiment: CellTiter-Blue cell viability assay; assay type: cell-based; conditions: Homo sapiens, AMO1; AMO-1 cells, 72 hours of treatment; read-out: IC50 AMO-1 (cell viability)
Protocol: as §1, §2, §3

[2] = read-out: IC50 values for inhibition of HDAC6
[3] = selectivity profiling, read-out: IC50 HDAC6

Sequence of HDAC1 (Q13547 whole entry): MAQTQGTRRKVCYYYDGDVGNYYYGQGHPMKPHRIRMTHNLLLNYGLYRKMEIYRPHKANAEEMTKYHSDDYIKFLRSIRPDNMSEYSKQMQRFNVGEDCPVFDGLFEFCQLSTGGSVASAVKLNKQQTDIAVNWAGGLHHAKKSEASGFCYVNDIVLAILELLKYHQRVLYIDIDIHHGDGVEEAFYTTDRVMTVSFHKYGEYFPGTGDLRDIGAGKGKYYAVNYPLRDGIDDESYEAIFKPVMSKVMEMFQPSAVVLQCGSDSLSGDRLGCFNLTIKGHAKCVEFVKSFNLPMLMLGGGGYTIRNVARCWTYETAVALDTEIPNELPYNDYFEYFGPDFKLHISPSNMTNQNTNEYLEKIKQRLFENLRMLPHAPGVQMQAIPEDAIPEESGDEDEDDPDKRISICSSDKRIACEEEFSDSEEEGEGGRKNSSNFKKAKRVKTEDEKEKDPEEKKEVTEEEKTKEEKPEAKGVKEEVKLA
Sequence of HDAC3 (O15379 whole entry): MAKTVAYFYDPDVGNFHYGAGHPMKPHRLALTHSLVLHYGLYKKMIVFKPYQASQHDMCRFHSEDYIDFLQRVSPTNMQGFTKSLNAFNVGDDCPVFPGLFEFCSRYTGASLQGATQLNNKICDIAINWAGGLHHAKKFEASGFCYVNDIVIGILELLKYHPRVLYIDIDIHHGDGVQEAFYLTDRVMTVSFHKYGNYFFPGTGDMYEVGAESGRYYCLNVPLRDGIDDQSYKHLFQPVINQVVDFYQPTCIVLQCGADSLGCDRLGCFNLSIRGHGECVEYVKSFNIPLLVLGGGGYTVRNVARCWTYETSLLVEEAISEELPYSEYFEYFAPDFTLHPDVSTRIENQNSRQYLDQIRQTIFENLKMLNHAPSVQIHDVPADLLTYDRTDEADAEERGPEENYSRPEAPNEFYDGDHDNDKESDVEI
Sequence of HDAC3 (Q9Y618 395-489 partner): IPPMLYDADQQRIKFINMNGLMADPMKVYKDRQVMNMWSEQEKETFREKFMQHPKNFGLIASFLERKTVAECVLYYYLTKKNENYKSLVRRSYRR
Sequence of HDAC8 (Q9BY41 whole entry): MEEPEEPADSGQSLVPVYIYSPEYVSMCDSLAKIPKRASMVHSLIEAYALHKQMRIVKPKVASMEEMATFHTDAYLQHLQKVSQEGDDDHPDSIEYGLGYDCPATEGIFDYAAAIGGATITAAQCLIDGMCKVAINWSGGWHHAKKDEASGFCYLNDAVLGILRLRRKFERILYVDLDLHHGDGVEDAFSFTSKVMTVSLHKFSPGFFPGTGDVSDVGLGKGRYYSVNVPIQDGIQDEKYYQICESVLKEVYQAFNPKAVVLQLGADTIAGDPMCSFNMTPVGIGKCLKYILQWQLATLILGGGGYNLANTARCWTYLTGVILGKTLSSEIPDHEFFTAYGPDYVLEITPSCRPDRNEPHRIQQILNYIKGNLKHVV
Sequence of HDAC2 (Q92769 whole entry): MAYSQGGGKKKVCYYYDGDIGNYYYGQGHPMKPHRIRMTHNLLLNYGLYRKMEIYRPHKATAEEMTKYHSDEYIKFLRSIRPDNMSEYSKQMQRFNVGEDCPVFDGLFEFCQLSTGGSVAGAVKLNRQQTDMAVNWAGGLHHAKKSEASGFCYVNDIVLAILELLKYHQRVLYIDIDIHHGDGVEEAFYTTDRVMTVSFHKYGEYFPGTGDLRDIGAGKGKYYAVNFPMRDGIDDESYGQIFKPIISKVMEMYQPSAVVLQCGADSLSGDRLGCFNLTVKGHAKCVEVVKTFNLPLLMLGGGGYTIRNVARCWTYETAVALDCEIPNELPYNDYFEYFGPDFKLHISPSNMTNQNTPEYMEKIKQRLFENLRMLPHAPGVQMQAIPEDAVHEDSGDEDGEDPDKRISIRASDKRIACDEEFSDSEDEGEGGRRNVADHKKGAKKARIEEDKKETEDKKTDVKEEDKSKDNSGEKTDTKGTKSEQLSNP

Compound: CCc1ccc(-c2nc3ccc(C(=O)NO)cc3[nH]2)cc1 [Example 109, 2-(4-ethylphenyl)-N-hydroxy-1H-benzimidazole-6-carboxamide]
- IC50 (HDAC1): 6500 nM
- IC50 (HDAC6; [3]): 46 nM
- IC50 (HDAC6; [2]): 46 nM
- IC50 (HDAC2): 165000 nM
- IC50 (HDAC8): 1200 nM
- IC50 (HDAC3): 2200 nM

Compound: O=C(NO)c1ccc2nc(-c3ccccc3-c3ccccc3)[nH]c2c1 [Example 119, 2-biphenyl-2-yl-N-hydroxy-1H-benzimidazole-6-carboxamide]
- IC50 (HDAC1): 4000 nM
- IC50 (HDAC6; [3]): 14 nM
- IC50 (HDAC6; [2]): 14 nM
- IC50 (HDAC2): 29000 nM
- IC50 (HDAC8): 710 nM
- IC50 (HDAC3): 2800 nM

Compound: CN1CCN(Cc2ccc(-c3nc4ccc(C(=O)NO)cc4[nH]3)cc2)CC1 [Example 207, N-hydroxy-2-{4-[(4-methylpiperazin-1-yl)methyl]phenyl}-1H-benzimidazole-6-carboxamide]
- IC50 (HDAC1): 700 nM
- IC50 (HDAC6; [3]): 7 nM
- IC50 (HDAC6; [2]): 7 nM
- IC50 (HDAC2): 7800 nM
- IC50 (HDAC8): 1800 nM
- IC50 (HDAC3): 250 nM

Compound: O=C(NO)c1ccc2nc(-c3ccc(-c4ccc(CN5CCCC5)cc4)cc3)[nH]c2c1 [Example 197, N-hydroxy-2-[4′-(pyrrolidin-1-ylmethyl)biphenyl-4-yl]-1H-benzimidazole-6-carboxamide trifluoroacetate]
- IC50 (HDAC6; [2]): 3.6 nM

Compound: O=C(NO)c1ccc2nc(-c3ccc(-c4ccc(/C=N/O)cc4)cc3)[nH]c2c1 [Example 193, N-hydroxy-2-{4′-[(E)-(hydroxyimino)methyl]biphenyl-4-yl}-1H-benzimidazole-6-carboxamide]
- IC50 (HDAC6; [2]): 11 nM

Compound: CS(=O)(=O)Nc1ccc(-c2ccc(-c3nc4ccc(C(=O)NO)cc4[nH]3)cc2)cc1 [Example 204, N-hydroxy-2-{4′-[(methylsulfonyl)amino]biphenyl-4-yl}-1H-benzimidazole-6-carboxamide]
- IC50 (HDAC6; [2]): 7.2 nM

Compound: O=C(NO)c1ccc2nc(-c3cccc(OCCOc4ccccc4)c3)[nH]c2c1 [Example 134, N-hydroxy-2-[3-(2-phenoxyethoxy)phenyl]-1H-benzimidazole-6-carboxamide]
- IC50 (HDAC6; [2]): 18 nM

Compound: COc1c(C)cc(-c2nc3cc(C(=O)NO)ccc3n2C)cc1C [Example 228, N-hydroxy-2-(4-methoxy-3,5-dimethylphenyl)-1-methyl-1H-benzimidazole-5-carboxamide]
- IC50 (HDAC1): 2000 nM
- IC50 (HDAC6; [3]): 3.5 nM
- IC50 (HDAC6; [2]): 3.5 nM
- IC50 (HDAC2): 20000 nM
- IC50 (HDAC8): 100 nM
- IC50 (HDAC3): 216 nM

Compound: O=C(NO)c1ccc2nc(-c3ccc(-c4cccc(CN5CCCCC5)c4)cc3)[nH]c2c1 [Example 186, N-hydroxy-2-[3′-(piperidin-1-ylmethyl)biphenyl-4-yl]-1H-benzimidazole-6-carboxamide trifluoroacetate]
- IC50 (HDAC6; [2]): 4.1 nM

Compound: COCCCNCc1ccc(-c2ccc(-c3nc4ccc(C(=O)NO)cc4[nH]3)cc2)cc1 [Example 191, N-hydroxy-2-(4′-{[(3-methoxypropyl)amino]methyl}biphenyl-4-yl)-1H-benzimidazole-6-carboxamide trifluoroacetate]
- IC50 (HDAC6; [2]): 18 nM

Compound: CC(C)Oc1ccc(-c2nc3ccc(C(=O)NO)cc3[nH]2)cc1 [Example 97, N-hydroxy-2-[4-(1-methylethoxy)phenyl]-1H-benzimidazole-6-carboxamide]
- IC50 (HDAC1): 5700 nM
- IC50 (HDAC6; [3]): 12 nM
- IC50 (HDAC6; [2]): 12 nM
- IC50 (HDAC2): 33000 nM
- IC50 (HDAC8): 260 nM
- IC50 (HDAC3): 2400 nM

Compound: COc1ccc(-c2ccc(-c3nc4ccc(C(=O)NO)cc4[nH]3)o2)cc1OC [Example 174, 2-[5-(3,4-dimethoxyphenyl)furan-2-yl]-N-hydroxy-1H-benzimidazole-6-carboxamide]
- IC50 (HDAC6; [2]): 4.7 nM

Compound: CCN(CC)CCOc1ccc(-c2nc3ccc(C(=O)NO)cc3[nH]2)cc1 [Example 125, 2-{4-[2-(diethylamino)ethoxy]phenyl}-N-hydroxy-1H-benzimidazole-6-carboxamide]
- IC50 (HDAC6; [2]): 14 nM

Compound: C[C@@H]1CN(Cc2ccc(-c3ccc(-c4nc5ccc(C(=O)NO)cc5[nH]4)cc3)cc2)C[C@H](C)O1 [Example 201, 2-(4′-{cis)-2,6-dimethylmorpholin-4-yl]methyl}biphenyl-4-yl)-N-hydroxy-1H-benzimidazole-6-carboxamide trifluoroacetate]
- IC50 (HDAC6; [2]): 13 nM

Compound: O=C(NO)c1ccc2nc(-c3ccc4c(c3)OCCO4)[nH]c2c1 [Example 11, 2-(2,3-dihydro-1,4-benzodioxin-6-yl)-N-hydroxy-1H-benzimidazole-6-carboxamide]
- IC50 (HDAC6; [2]): 110 nM

Compound: O=C(NO)c1ccc2nc(-c3ccc4c(c3)CCO4)[nH]c2c1 [Example 96, 2-(2,3-dihydro-1-benzofuran-5-yl)-N-hydroxy-1H-benzimidazole-6-carboxamide]
- IC50 (HDAC1): 5000 nM
- IC50 (HDAC6; [3]): 5.2 nM
- IC50 (HDAC6; [2]): 5.2 nM
- IC50 (HDAC2): 58000 nM
- IC50 (HDAC8): 220 nM
- IC50 (HDAC3): 1300 nM

Compound: O=C(NO)c1ccc2nc(-c3cccs3)[nH]c2c1 [Example 98, N-hydroxy-2-thiophen-2-yl-1H-benzimidazole-6-carboxamide]
- IC50 (HDAC1): 4400 nM
- IC50 (HDAC6; [3]): 7 nM
- IC50 (HDAC6; [2]): 7 nM
- IC50 (HDAC2): 24000 nM
- IC50 (HDAC8): 290 nM
- IC50 (HDAC3): 1900 nM

Compound: CN(C)C(=O)c1cccc(-c2ccc(-c3nc4ccc(C(=O)NO)cc4[nH]3)cc2)c1 [Example 195, 2-[3′-(dimethylcarbamoyl)biphenyl-4-yl]-N-hydroxy-1H-benzimidazole-6-carboxamide]
- IC50 (HDAC6; [2]): 24 nM

Now from value to compound, other results behind:

- IC50 (HDAC6; [2]): 15 nM
Compound: Cn1c(-c2nc3ccc(C(=O)NO)cc3[nH]2)cc2ccccc21 [Example 112, N-hydroxy-2-(1-methyl-1H-indol-2-yl)-1H-benzimidazole-6-carboxamide]

- IC50 (HDAC6; [2]): 13 nM
Compound: COc1cccc(-c2nc3ccc(C(=O)NO)cc3[nH]2)c1O [Example 85, N-hydroxy-2-(2-hydroxy-3-methoxyphenyl)-1H-benzimidazole-6-carboxamide]

- IC50 (U266 (multiple myelom)): 160 nM
- IC50 (HDAC6; [2]): 19 nM
Compound: O=C(NO)c1ccc2nc(-c3ccc(-c4ccccc4F)cc3)[nH]c2c1 [Example 167, 2-(2′-fluorobiphenyl-4-yl)-N-hydroxy-1H-benzimidazole-6-carboxamide]
- IC50 [1]: > 20000 nM
- IC50 (AMO-1 (plasmacytom)): 140 nM

- IC50 (U266 (multiple myelom)): 560 nM
Compound: O=C(NO)c1ccc2nc(-c3ccc(-c4ccccc4)c(F)c3)[nH]c2c1 [Example 180, 2-(2-fluorobiphenyl-4-yl)-N-hydroxy-1H-benzimidazole-6-carboxamide]
- IC50 [1]: > 20000 nM
- IC50 (AMO-1 (plasmacytom)): 420 nM

- IC50 (HDAC6; [2]): 14 nM
Compound: O=C(NO)c1ccc2nc(-c3ccnc4ccccc34)[nH]c2c1 [Example 66, N-hydroxy-2-quinolin-4-yl-1H-benzimidazole-6-carboxamide trifluoroacetate]

- IC50 (HDAC6; [2]): 3.1 nM
Compound: O=C(NO)c1ccc2nc(-c3ccc(-c4ccccc4)s3)[nH]c2c1 [Example 179, N-hydroxy-2-(5-phenylthiophen-2-yl)-1H-benzimidazole-6-carboxamide]

- IC50 (HDAC6; [2]): 2.9 nM
Compound: O=C(NO)c1ccc2nc(-c3ccc(-c4ccccc4F)s3)[nH]c2c1 [Example 176, 2-[5-(2-fluorophenyl)thiophen-2-yl]-N-hydroxy-1H-benzimidazole-6-carboxamide]

- IC50 (HDAC6; [2]): 19 nM
Compound: C#Cc1ccc(-c2nc3ccc(C(=O)NO)cc3[nH]2)cc1 [Example 80, 2-(4-ethynylphenyl)-N-hydroxy-1H-benzimidazole-6-carboxamide]

- IC50 (HDAC6; [2]): 6.6 nM
Compound: COc1ccc(Oc2cccc(-c3nc4ccc(C(=O)NO)cc4[nH]3)c2)cc1 [Example 113, N-hydroxy-2-[3-(4-methoxyphenoxy)phenyl]-1H-benzimidazole-6-carboxamide]
